In patent US10654838B2, “Aminopyridine compounds useful as inhibitors of protein prenylation” (INSTITUT NATIONAL DE LA SANTE ET DE LA RECHERCHE MEDICALE …, priority 2014, dated 2020):

Key:
[1] = test system: HGPS MSCs; experiment: Osteogenic differentiation (alkaline phosphatase activity); format: cell-based, human; conditions: 7 days of osteogenic differentiation
Procedure: MSC were seeded at 600 cells per well in 384 well plate in MSC culture medium and treated as previously described. After 72 hours, MSC medium was replaced by STEMPRO osteogenic induction medium (Invitrogen) in presence or not of the different drugs. After 7 days of treatment, cells were fixed with ethanol 95% and stained by adding either a colorimetric substrate of the alkaline phosphatase, the 5-Bromo-4-chloro-3-indolyl phosphate/Nitro blue tetrazolium (NBT) (Sigma-Aldrich) or a chromogenic substrate of this enzyme (absorbance at 405 nm), the p-Nitrophenyl Phosphate (pNPP) (Pierce Biotechnology).

[2] = target: T1, FPPS (Homo sapiens, UniProt P14324); experiment: FPPS activity assay; format: biochemical; design: endogenous in cells; host or cells: HGPS MSCs (cell lysate); conditions: concentration inducing 50% of the maximum inhibiting effect of the compound
T1 sequence (P14324 1-419): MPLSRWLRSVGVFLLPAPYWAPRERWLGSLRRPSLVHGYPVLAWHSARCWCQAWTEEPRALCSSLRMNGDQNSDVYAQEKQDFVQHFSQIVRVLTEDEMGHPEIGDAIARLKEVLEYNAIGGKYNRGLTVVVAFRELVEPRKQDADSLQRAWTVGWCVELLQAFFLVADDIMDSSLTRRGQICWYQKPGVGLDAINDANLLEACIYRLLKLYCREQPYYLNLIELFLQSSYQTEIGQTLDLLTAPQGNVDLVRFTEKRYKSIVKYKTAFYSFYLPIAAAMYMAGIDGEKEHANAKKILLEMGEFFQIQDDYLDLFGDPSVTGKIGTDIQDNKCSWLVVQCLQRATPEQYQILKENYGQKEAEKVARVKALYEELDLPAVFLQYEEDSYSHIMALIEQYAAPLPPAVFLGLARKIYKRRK
Procedure: (§1) Cell pellet of HGPS MSCs were resuspended in 25 mM Tris-HCl pH 7.4, 1 mM DTT, 1 mM MgCl2, 1 EDTA, 1 mM PMSF and centrifuged at 10,000×g for 10 min at 4° C. Protein content was determined using Lowry's method. Aliquots of cell lysate containing 100 μg of total proteins were incubated with tested substances at 37° C. for 30 min.
FPPS assay was carried out with some modifications of the procedure of Krisans et al. (Krisans et al., 1994, The Journal of biological chemistry VOL. 269: 14165-14169) and described by Gupta et al. (Gupta et al., 1999, Eur J Med Chem, VOL. 43: 2751-2767). Briefly, FPPS was assayed in 150 μL containing 25 mmol/L Hepes, pH=7, 2 mmol/L MgCl2, 1 mmol/L dithiothreitol, 5 mmol/L KF, 1% A noctyl-β-glucopyranoside, 3.3 μmol/L [4-14C] IPP (18 Ci/mmol), 3 μmol/L unlabeled IPP and 20 μmol/L geranyl diphosphate. Reactions were started by adding 40 μL of treated or untreated cell lysate and incubated for 45 min at 37° C. Reactions were stopped by the addition of 150 μL 2.5 mol/L HCl in 80% ethanol containing 100 μg/mL farnesol as a carrier. The samples were hydrolyzed for 30 min at 37° C. to convert the FPP to farnesol and neutralized by the addition of 150 μL of 10% NaOH. The reaction product (farnesol) was extracted into 1 mL of N-hexane and an aliquot (200 μL) of the organic phase was used for radioactivity counting. Parallel samples were assayed to evaluate the total and the nonspecific radioactivity. In all experiments, enzyme assays were carried out in triplicate.

[3] = target: T1, FPPS; experiment: Surface plasmon resonance on immobilized FPPS; format: binding
Procedure: Surface plasmon resonance (SPR) was measured using a BIAcore 3000 instrument at 25° C. FPPS (2800 RU) was immobilized on flow cells of a CM5-chip. The running buffer was HBSEP pH 7.4 (20 mM Hepes, 150 mM NaCl, and 0.005% P20). Regeneration was performed with 10 mM glycine, pH 3.0. […] Data were evaluated using Scrubber2 (Biologic software) and BIAeval software (BIAcore).

[4] = test system: prelamin A; experiment: Western immunoblotting of prelamin A; format: cell-based, human; conditions: HGPS MSCs, optimal concentration
Procedure: Whole-cell lysates of MSC were collected, separated by SDS-PAGE, and transferred onto PVPF membrane by liquid transfer method. Blots were blocked in 10% skim milk (Bio-Rad) in tween 0.1% tris-buffered saline (TTBS) 1× one hour at room temperature. The primary antibodies used were a mouse anti-lamins A/C 1:200 (Millipore, JOL2), a rabbit anti-prelamin A 1/100 (ANTOO45, Diatheva) and a β-actin 1/200000 (Sigma). Membranes were incubated during the night at 4° C. Antigen-antibody binding was detected using horseradish peroxidaseconjugated species-specific secondary antibodies (GE-Healthcare, Little Chalfont, UK) followed by enhanced chemiluminescence Western blotting detection reagents (Perkin-Elmer, Waltham, USA).

[5] = target: T2, FT (Homo sapiens, UniProt P49354+P49356); experiment: FT activity assay (Farnesyltransferase [3H] SPA); format: biochemical; conditions: concentration inducing 50% of the maximum inhibiting effect of the compound
T2 construct: Reactions were started by adding 40 μL of treated or untreated cell lysate; endogenous in cells; host or cells: HGPS MSCs (cell lysate)
Procedure: as §1
FT activity was determined by Famesyltransferase [3H] SPA enzyme assay (Amersham Life Science, Buckinghamshire, England). Briefly, FT activity was assayed in 20 μl of assay buffer containing 50 mmol/L Hepes, 30 mmol/L MgCl2, 20 mmol/L KCl and 5 mmol/L dithiothreitol, 20 μl of [3H]-FPP (12 pmol) and 20 μl of biotin lamin B. Reactions were started by adding 40 μL of treated or untreated cell lysate and incubated for 1 hour at 37° C. Reactions were stopped by the addition of 150 μL of stop reagent containing SPA bead and counted in a scintillation counter. FT activity was expressed as pmoles of incorporated [3H]-FPP into biotin lamin-B peptide per minute per milligram of total proteins (pmol/min/mg prot). Parallel samples were assayed to evaluate the total and the nonspecific radioactivity. In all experiments enzyme assays were carried out in triplicate.

N#CC(c1ccccn1)c1ccnc(N2CCN(Cc3ccccc3F)CC2)n1 (stereo not drawn) [Mono-AP1, {2-[4-(2-fluoro-benzyl)-piperazin-1-yl]-pyrimidin-4-yl}-pyridin-2-yl-acetonitrile]
rescue of premature osteogenic differentiation (alkaline phosphatase activity) [1]: not significantly different to those observed following FTI treatment | IC50 [2]: 1.55 µM | direct interaction with FPPS (SPR), in words [3]: confirmed the direct interactions | Kd ([3]; SPR, BIAcore 3000, 25° C., read-out: Kd (M), equilibrium dissociation constant): 2.4e-05 M | prelamin A level (Western blot) [4]: increased | IC50 [5]: 3.46 µM
